Data from patent publication US5837728A, “9-cis retinoic acid esters and amides and uses thereof” (priority 1995, dated 1998).

How the values were obtained:
[1] = system: ornithine decarboxylase (ODC); assay: ODC/Retinoid Bioassay: inhibition of TPA induced ornithine decarboxylase activity; assay type: in vivo, CD-1 mice; conditions: for ODC activity reduction: topical, 1.7 nM (as printed in Table 2), TPA induced
Procedure: The ODC/Retinoid Bioassay is based on the method of Verma, A. K. and Boutwell, R. K., Cancer Res. (1977) 37:2196-2201. The ODC assay measures a compounds effect on the prevention of the induction of ODC, namely the effect of the retinoid compound on the inhibition of the tumor promoter 12-O-tetradecanoylphorbol-13-acetate (TPA) induced ODC activity. The assay is carried out using CD-1 mice (aged 7 to 9 weeks). The dorsal hair of the mice is shaved 3-4 days before testing. Four mice are used for each point. The test retinoids, at one of two dose levels (1.7 and 17 nmoles) dissolved in 0.2 ml of acetone is applied topically to the back of each shaved mouse. A single dose of TPA ([…]) is applied to the back of each treated mouse 30 minutes later. Control groups are treated with either acetone alone, TPA, or tretinoin. The mice are sacrificed by cervical dislocation 5 hours after TPA treatment.
The dorsal skin encompassing the shaved and TPA exposed area is excised and placed in a 100 ml beaker containing distilled water maintained at 51° C.-57° C. The skin is soaked for 50-70 seconds at this temperature with intermittent stirring. The skin is placed epidermis side up in a chilled (0°-5° C.) stainless steel plate and the epidermal layer is scraped off with a razor blade. The epidermal layers from the 4 mice are pooled and placed in a homogenization tube with 2 ml of ODA buffer ([…] with […] pyridoxal phosphate, […] ethylenediaminetetraacetic acid (EDTA), 1 mM dithiothreitol, pH 7.5). The pooled epidermal layers are homogenized for 15 seconds at 0° C. using a Polytron homogenizer at a setting of 7.5. The homogenate is centrifuged at 30,000×g and the supernatant fraction is pipetted into a storage tube and frozen for about 72 hours.
The homogenate is assayed for ODC activity as described by Verma and Boutwell to measure the release of ^14 CO2 from labeled DL(1-14C) ornithine. Incubations are carried out in disposable centrifuge tubes with center well holders containing filter paper impregnated with sodium hydroxide to absorb ^14 CO2. The incubation mixture consisted of 90 μl of L-ornithine, 350 μl of ODC buffer, 100 μl of 14C-ornithine (1.32 nm, Sp. Act:4.4 pCi/pM) and 10 μl of test sample. After incubation at 37° C. for 45 minutes, 0.5 ml of 2M chilled citric acid (4° C.) is added and incubation is continue for an additional 30 minutes to insure complete absorption of ^14 CO2. The filter paper is removed from the center well holders and set in 1 ml of water in capped scintillation vials for at least 1 hour before adding RBI 3820 scintillation cocktail. Radioactivity is measured in a Tri Carb Scintillation Counter. Results are expressed as pmol of ^14 CO2 released in 30 minutes per milligram of protein based on the specific activity of DL-14C-ornithine. The results are expressed in Table 2 below as the % reduction in ODC activity as compared to the control, for the compounds of each of the preceding Examples: […]

[2] = system: pseudocomedone (utriculus) of the rhino mouse; assay: Topical rhino mouse pseudocomedone (utriculus) reduction assay; assay type: in vivo; set-up: Utriculus reduction (Table 1) / Utriculus reduction (Table 3): key to the marks not given beside the values; conditions: concentration 0.1 (unit not given)
Procedure: A topical assay to test for pseudocomedone (utriculus) reduction in the rhino mouse is conducted.
Each test compound and a vehicle control is applied topically to the dorsal trunk of the rhino mouse. The utriculus diameters are measured with a ocular micrometer. […] Kligman, et al., The Effect on Rhino Mouse Skin of Agents which Influence Keratinization and Exfoliation, J. Invest. Derm. […] Van Scott, Experimental Animal Integumental Models for Screening Potential Dermatologic Drugs, In Pharmacology of the Skin, eds. […] Mann, Hair Loss and Cyst Formation in Hairless and Rhino Mutant Mice, Anat. Rec. […] Mezick, et al., Topical and Systemic Effects of Retinoids on Horn-Filled Utriculus Size in the Rhino Mouse. A Model to Quantify Antikeratinizing Effects of Retinoids, J. Invest. Derm. […] Mezick, et al., Anti-Acne Activity of Retinoids in the Rhino Mouse, In Models in Dermatology, eds.
(§1) The dorsal trunk of the rhino mouse is the test site. Each test compound is dissolved in alcohol:propylene glycol (70:30, v:v) or other suitable vehicle and topically applied (0.1 ml) to the dorsal trunk once daily, five consecutive days/week for two weeks. Also, administration may be oral (p.o.) in a suitable vehicle. Following treatment, the animals are sacrificed by cervical dislocation. The treated dorsal trunk skin is removed from the animal and placed into 0.5% acetic acid for up to 18 hours at approximately 4° C. After this, the epidermis with the acne cysts is separated from the underlying dermis. The sheets of epidermis are processed by routine methods to permanent whole mounts for microscopic examination. Also, full-thickness samples may be taken, stained (H&E), and examined by light microscopy.
The utriculus diameters are measured with an ocular micrometer to compare effects of test compounds to vehicle control and/or reference compound on cyst reduction. Light microscopy is used to determine effects on cell differentiation.
Another topical assay is conducted following the procedure described above.
Each test compound and a vehicle control was applied topically to the dorsal trunk of the rhino mouse. The utriculus diameters are measured with a ocular micrometer. […] Kligman, et al., J. Invest. […] Van Scott, Pharmacology of the Skin, eds. […] Mann, Anat. […] Mezick, et al, J. Invest. […] Mezick et al., Models in Dermatology, eds.
as §1, with “(70:30,v:v)” for “(70:30, v:v)”, “weeks.” for “weeks. Also, administration may be oral (p.o.) in a suitable vehicle.”, “"acne cysts"” for “acne cysts”, “are” for “may be”, “(H&E)” for “(H&E),”, “microscope.” for “microscopy.”

[3] = system: Human neonatal foreskin fibroblasts; assay: Growth of human neonatal foreskin fibroblasts (cell number); assay type: cell-based; conditions: for Number of fibroblasts: two days
From the text: (§2) Human neonatal foreskin keratinocytes and human neonatal foreskin fibroblasts were isolated and grown in monlayer culture. Culture medium for keratinocytes was Keratincyte Growth Medium (KGM) from Clonetics, Inc., San Diego. Calif. The culture medium for fibroblasts was Dulbecco's Modified Eagle's Medium (DMEM) supplemented with non-essential amino acids and 10% fetal bovine serum. The culture medium was obtained from GIBCO, Grand Island, N.Y. and the FBS was from Hyclone Labs, Inc., Logan, Utah.
Cells at passage 2-4 were plated in wells of a 24 well dish at approximately 5×10^4 cells per well in their respective culture medium. Incubation was at 37° C. with 5% CO2. After the cells attached and spread overnight, they were washed two times in serum-free keratincyte basal medium (KBM) and incubated in 1 ml of KBM or in 1 ml of KGM. Compound IV was added in varying concentrations to the wells. All-trans-retinoic acid (or no treatment) was added to control wells. The cells were incubated for an additional two days for fibroblasts and three days for keratinocytes, and were then harvested and counted. The effect of IV and of the controls are shown for both cell types in Tables 9 and 10: […]

[4] = system: Human neonatal foreskin keratinocytes; assay: Growth of human neonatal foreskin keratinocytes (cell number); assay type: cell-based; conditions: for Number of keratinocytes, KGM / Number of keratinocytes, KMB: three days
From the text: as §2
Cells at passage 2-4 were plated in wells of a 24 well dish at approximately 5×10^4 cells per well in their respective culture medium. Incubation was at 37° C. with 5% CO2. After the cells attached and spread overnight, they were washed two times in serum-free keratincyte basal medium (KBM) and incubated in 1 ml of KBM or in 1 ml of KGM. Compound IV was added in varying concentrations to the wells. […] The cells were incubated for an additional two days for fibroblasts and three days for keratinocytes, and were then harvested and counted.

sebaceous gland = assay: Oral hamster sebaceous gland reduction assay; assay type: in vivo, male Syrian golden hamsters; set-up: key to the marks not given beside the values; conditions: 32 mg/kg
Procedure: An oral assay for hamster sebaceous gland reduction is conducted.
Hamsters are dosed orally with the test compound and vehicle alone. The reduction in sebaceous gland size is estimated microscopically in relation to the control. The assay is unique and proprietary to Ortho Pharmaceutical Corp. and is based upon the work of Plewig et al. (1977) and Gomex et al. (1980). Plewig, et al., Hamster Ear Model for Sebaceous Glands, J. Invest. Derm. 68: 171-176 (1977). Gomez, et al., Effect of 13-cis-Retinoic Acid on the Hamster Flank Organ, J. Invest. Derm. 74: 392-397 (1980).
For oral (p.o.) studies, male Syrian golden hamsters are […] at 5 ml/kg, once daily, five consecutive days/week for two or three weeks. Modified but similar dosing schedules could be used. Control hamsters are dosed with vehicle alone at 5 ml/kg. Following final treatment (up to 72 hours), the hamsters are sacrificed in a CO2 atmosphere. Samples of each test site are placed into 10% buffered formalin and histologically prepared. Serial sections of each sample are stained (H&E) and examined microscopically.
The reduction in sebaceous gland size is estimated microscopically in relation to the control treated sites. To quantify sebaceous gland size, cross-sectional areas are measured with an image analyzer system.

## CCCCCCCC/C=C\CCCCCCCC(=O)OCC(COC(=O)/C=C(C)/C=C/C=C(C)\C=C\C1=C(C)CCCC1(C)C)OC(=O)CCCCCCC/C=C\CCCCCCCC (stereo not drawn) [Compound 9, 1-(9-cis-retinoyloxy)-2,3-dioleoylpropane]
[1]
  ODC activity reduction: ++

## CC1=C(/C=C/C(C)=C\C=C\C(C)=C\C(=O)OCC(=O)CO)C(C)(C)CCC1 [Compound 8, 1-(9-cis-retinoyloxy)-3-hydroxy-2-propanone]
[1]
  ODC activity reduction: +++

## CC1=C(/C=C/C(C)=C\C=C\C(C)=C\C(=O)ON2C(=O)CCC2=O)C(C)(C)CCC1 [Compound 10, Succinimidyl 9-cis-retinoate]
[2]
  Utriculus reduction (Table 3): ++
[1]
  ODC activity reduction: +++

## CC1=C(/C=C/C(C)=C\C=C\C(C)=C\C(=O)OCC(=O)COC(=O)/C=C(C)/C=C/C=C(C)\C=C\C2=C(C)CCCC2(C)C)C(C)(C)CCC1 [Compound 4, 1,3-bis-(9-cis-retinoyloxy)-2-propanone]
[1]
  ODC activity reduction: +++

## CC1=C(/C=C/C(C)=C\C=C\C(C)=C\C(=O)OCC(=O)C(C)(C)C)C(C)(C)CCC1 [Compound IV]
[3]; 0.1 μg/ml
  Number of fibroblasts: 6.4 ± 0.6 × 10^4 cells
[3]; 0.25 μg/ml
  Number of fibroblasts: 5.8 ± 0.1 × 10^4 cells
[3]; 0.5 μg/ml
  Number of fibroblasts: 5.5 ± 0.8 × 10^4 cells
[3]; 1.0 μg/ml
  Number of fibroblasts: 7.9 ± 0.1 × 10^4 cells
[3]; 5.0 μg/ml
  Number of fibroblasts: 8.5 ± 0.6 × 10^4 cells
[3]; 10.0 μg/ml
  Number of fibroblasts: 7.5 ± 0.9 × 10^4 cells
[3]; compared with retinoic acid
  Effect on fibroblasts (summary of Tables 9 and 10): less active result with fibroblasts
[4]; 0.10 μg/ml
  Number of keratinocytes, KGM: 27.4 ± 0.1 × 10^4 cells
  Number of keratinocytes, KMB: 13.1 ± 0.5 × 10^4 cells
[4]; 0.25 μg/ml
  Number of keratinocytes, KGM: 25.9 ± 0.4 × 10^4 cells
[4]; 0.5 μg/ml
  Number of keratinocytes, KGM: 22.5 ± 0.1 × 10^4 cells
  Number of keratinocytes, KMB: 13.8 ± 2.4 × 10^4 cells
[4]; 1.0 μg/ml
  Number of keratinocytes, KGM: 21.2 ± 0.8 × 10^4 cells
  Number of keratinocytes, KMB: 14.0 ± 0.9 × 10^4 cells
[4]; 5.0 μg/ml
  Number of keratinocytes, KGM: 6.4 ± 0.1 × 10^4 cells
  Number of keratinocytes, KMB: 11.2 ± 1.2 × 10^4 cells
[4]; 10.0 μg/ml
  Number of keratinocytes, KGM: 4.5 ± 0.2 × 10^4 cells
  Number of keratinocytes, KMB: 8.4 ± 0.2 × 10^4 cells
[4]; compared with retinoic acid
  Effect on keratinocytes (summary of Tables 9 and 10): potent "retinoid" effect on keratinocytes

## CC1=C(/C=C/C(C)=C\C=C\C(C)=C\C(=O)OCC(=O)c2ccccc2)C(C)(C)CCC1 [Compound 5, 9-cis-retinoyloxy methyl phenyl ketone]
[2]
  Utriculus reduction (Table 3): ++
[1]
  ODC activity reduction: ++

## CC1=C(/C=C/C(C)=C\C=C\C(C)=C\C(=O)OCOC(=O)C(C)(C)C)C(C)(C)CCC1 [Compound 6, 9-cis-retinoyloxymethyl 2,2-dimethylpropanoate]
[2]
  Utriculus reduction (Table 3): +++
[1]
  ODC activity reduction: +++

## CCCCCCCCCC(=O)OCC(=O)COC(=O)/C=C(C)/C=C/C=C(C)\C=C\C1=C(C)CCCC1(C)C [Compound 3, 1-(9-cis-retinoyloxy)-3-decanoylyoxy-2-propanone]
[1]
  ODC activity reduction: +++
Sebaceous gland
  Sebaceous gland reduction: +++

## CCCCCCCCCCCCCC(=O)O[C@@H]1[C@@H](C)[C@@]2(O)[C@@H](C=C(CO)C[C@]3(O)C(=O)C(C)=C[C@@H]23)[C@@H]2C(C)(C)[C@]12OC(C)=O [TPA, 12-O-tetradecanoylphorbol-13-acetate, reference compound]
[1]; TPA 17.0 nM, control
  ODC activity reduction (TPA control): 0 nM ^14 CO2 /30 min/mg Protein
